We go through ten compounds from ChEMBL document CHEMBL5331066, “Structure-guided design of novel HEPT analogs with enhanced potency and safety: From Isopropyl-HEPTs to Cyclopropyl-HEPTs” (Eur J Med Chem, 2023).

For orientation: EC50 means the concentration giving half of the maximal effect. As a reminder, the IC50 is the midpoint of a concentration-inhibition curve. In general, CC50 refers to the concentration at which the toxic effect on the cells reaches its halfway point.

The subject of one data set is Human immunodeficiency virus 1. Briefly: Antiviral activity against wild type HIV1 IIIB infected in human MT4 cells assessed as protection against virus-induced cytopathicity. It counts as functional, organism-based. As to conditions: Human immunodeficiency virus 1, IIIB.
For the compound `Cc1cccc(Sc2c(C3CC3)c(=O)[nH]c(=O)n2COCc2ccccc2)c1`, the EC50 amounted to 0.028 µM.

In the case of `COc1ccc(OC)c(Sc2c(C3CC3)c(=O)[nH]c(=O)n2COCc2ccccc2)c1`, the EC50 was 0.22 µM.

As to `O=c1[nH]c(=O)n(COCc2ccccc2)c(Sc2ccc(F)cc2)c1C1CC1`, the EC50 was 0.75 µM.

As to `COc1ccc(Sc2c(C3CC3)c(=O)[nH]c(=O)n2COCc2ccccc2)cc1`, the EC50 is above 44.6 µM.

For the compound `O=c1[nH]c(=O)n(COCc2ccccc2)c(Sc2ccccc2F)c1C1CC1`, the EC50 stood at 0.043 µM.

Consider `COc1cccc(OC)c1Sc1c(C2CC2)c(=O)[nH]c(=O)n1COCc1ccccc1`, for which the EC50 turned out to be 6.7 µM.

Take `O=c1[nH]c(=O)n(COCc2ccccc2)c(Sc2cc(F)cc(F)c2)c1C1CC1`: the EC50 worked out at 0.036 µM.

As to `O=c1[nH]c(=O)n(COCc2ccccc2)c(Sc2ccccc2)c1C1CC1`, the EC50 was 0.039 µM.

For `O=c1[nH]c(=O)n(COCc2ccccc2)c(Sc2ccc(F)cc2F)c1C1CC1`, the EC50 worked out at 1.2 µM.

Turning to `O=c1[nH]c(=O)n(COCc2ccccc2)c(Sc2cccc(F)c2F)c1C1CC1`, the EC50 turned out to be 0.14 µM.

Another data set deals with Human immunodeficiency virus type 1 reverse transcriptase (Human immunodeficiency virus 1, UniProt Q72547). Kind of data set: Inhibition of wild type HIV-1 reverse transcriptase assessed as inhibition of biotin deoxyuridine triphosphate incorporation into […].
Settings: not given
`O=c1[nH]c(=O)n(COCc2ccccc2)c(Sc2ccccc2F)c1C1CC1`: the IC50 stood at 0.06 µM.

With `O=c1[nH]c(=O)n(COCc2ccccc2)c(Sc2cc(F)cc(F)c2)c1C1CC1`, the IC50 amounted to 0.1 µM.

Regarding `O=c1[nH]c(=O)n(COCc2ccccc2)c(Sc2ccc(F)cc2F)c1C1CC1`, the IC50 came out at 1.8 µM.

On to `O=c1[nH]c(=O)n(COCc2ccccc2)c(Sc2cccc(F)c2F)c1C1CC1`, for which the IC50 came to 0.24 µM.

For a further data set, the system named is Human immunodeficiency virus 1. Briefly: Antiviral activity against HIV1 harboring L100I mutant infected in human MT4 cells assessed as protection against virus-induced cytopathicity. The format is functional, organism-based. As to conditions: Human immunodeficiency virus 1, MT4. On the technique in general: Damage to the host cells serves as the signal in cytopathic effect assays.
Regarding `Cc1cccc(Sc2c(C3CC3)c(=O)[nH]c(=O)n2COCc2ccccc2)c1`, the EC50 stood at 0.17 µM.

Turning to `COc1ccc(OC)c(Sc2c(C3CC3)c(=O)[nH]c(=O)n2COCc2ccccc2)c1`, the EC50 worked out at 0.66 µM.

On to `O=c1[nH]c(=O)n(COCc2ccccc2)c(Sc2ccc(F)cc2)c1C1CC1`, for which the EC50 is 1.88 µM.

Regarding `O=c1[nH]c(=O)n(COCc2ccccc2)c(Sc2ccccc2F)c1C1CC1`, the EC50 is 0.45 µM.

For the compound `COc1cccc(OC)c1Sc1c(C2CC2)c(=O)[nH]c(=O)n1COCc1ccccc1`, the EC50 stood at 144 µM.

`O=c1[nH]c(=O)n(COCc2ccccc2)c(Sc2cc(F)cc(F)c2)c1C1CC1`: the EC50 turned out to be 0.43 µM.

Take `O=c1[nH]c(=O)n(COCc2ccccc2)c(Sc2ccccc2)c1C1CC1`: the EC50 came out at 1.23 µM.

As for `O=c1[nH]c(=O)n(COCc2ccccc2)c(Sc2ccc(F)cc2F)c1C1CC1`, the EC50 amounted to 3.1 µM.

Regarding `O=c1[nH]c(=O)n(COCc2ccccc2)c(Sc2cccc(F)c2F)c1C1CC1`, the EC50 is 0.5 µM.

A further data set has as its system Human immunodeficiency virus 1. Kind of data set: Antiviral activity against HIV1 harboring Y188L mutant infected in human MT4 cells assessed as protection against virus-induced cytopathicity. It counts as functional, organism-based. As to conditions: Human immunodeficiency virus 1, MT4.
As to `Cc1cccc(Sc2c(C3CC3)c(=O)[nH]c(=O)n2COCc2ccccc2)c1`, the EC50 was above 32.5 µM.

As for `COc1ccc(OC)c(Sc2c(C3CC3)c(=O)[nH]c(=O)n2COCc2ccccc2)c1`, the EC50 is above 33.4 µM.

Regarding `O=c1[nH]c(=O)n(COCc2ccccc2)c(Sc2ccc(F)cc2)c1C1CC1`, the EC50 is above 40.8 µM.

Regarding `O=c1[nH]c(=O)n(COCc2ccccc2)c(Sc2ccccc2F)c1C1CC1`, the EC50 is above 34.7 µM.

In the case of `COc1cccc(OC)c1Sc1c(C2CC2)c(=O)[nH]c(=O)n1COCc1ccccc1`, the EC50 is above 284 µM.

`O=c1[nH]c(=O)n(COCc2ccccc2)c(Sc2cc(F)cc(F)c2)c1C1CC1`: the EC50 is above 30 µM.

Regarding `O=c1[nH]c(=O)n(COCc2ccccc2)c(Sc2ccccc2)c1C1CC1`, the EC50 was above 30.7 µM.

Take `O=c1[nH]c(=O)n(COCc2ccccc2)c(Sc2ccc(F)cc2F)c1C1CC1`: the EC50 was above 33.5 µM.

Consider `O=c1[nH]c(=O)n(COCc2ccccc2)c(Sc2cccc(F)c2F)c1C1CC1`, for which the EC50 was above 31.4 µM.

The test system of another data set is Human immunodeficiency virus 1. Briefly: Antiviral activity against HIV1 harboring E138K mutant infected in human MT4 cells assessed as protection against virus-induced cytopathicity. It counts as functional, organism-based. As to conditions: Human immunodeficiency virus 1, MT4.
Turning to `Cc1cccc(Sc2c(C3CC3)c(=O)[nH]c(=O)n2COCc2ccccc2)c1`, the concentration giving a half-maximal response (EC50) came out at 0.16 µM.

For the compound `COc1ccc(OC)c(Sc2c(C3CC3)c(=O)[nH]c(=O)n2COCc2ccccc2)c1`, the 50% effective concentration (EC50) was determined as 0.99 µM.

Take `O=c1[nH]c(=O)n(COCc2ccccc2)c(Sc2ccc(F)cc2)c1C1CC1`: the EC50 was found to be 2.03 µM.

Regarding `O=c1[nH]c(=O)n(COCc2ccccc2)c(Sc2ccccc2F)c1C1CC1`, the EC50 was 0.35 µM.

Regarding `COc1cccc(OC)c1Sc1c(C2CC2)c(=O)[nH]c(=O)n1COCc1ccccc1`, the concentration giving a half-maximal response (EC50) was above 284 µM.

For the compound `O=c1[nH]c(=O)n(COCc2ccccc2)c(Sc2cc(F)cc(F)c2)c1C1CC1`, the EC50 was 0.19 µM.

`O=c1[nH]c(=O)n(COCc2ccccc2)c(Sc2ccccc2)c1C1CC1`: the concentration for a half-maximal effect (EC50) came out at 2.79 µM.

For the compound `O=c1[nH]c(=O)n(COCc2ccccc2)c(Sc2ccc(F)cc2F)c1C1CC1`, the EC50 was 8.38 µM.

As to `O=c1[nH]c(=O)n(COCc2ccccc2)c(Sc2cccc(F)c2F)c1C1CC1`, the half-maximal effective concentration (EC50) was determined as 0.5 µM.

For a further data set, the system named is Human immunodeficiency virus 1. Briefly: Antiviral activity against HIV1 harboring K103 N mutant infected in human MT4 cells assessed as protection against virus-induced cytopathicity. The format is functional, organism-based. The conditions noted are these: Human immunodeficiency virus 1, MT4.
On to `Cc1cccc(Sc2c(C3CC3)c(=O)[nH]c(=O)n2COCc2ccccc2)c1`, for which the EC50 is 2.76 µM.

As to `COc1ccc(OC)c(Sc2c(C3CC3)c(=O)[nH]c(=O)n2COCc2ccccc2)c1`, the EC50 is above 33.4 µM.

As to `O=c1[nH]c(=O)n(COCc2ccccc2)c(Sc2ccc(F)cc2)c1C1CC1`, the EC50 is above 40.8 µM.

As for `O=c1[nH]c(=O)n(COCc2ccccc2)c(Sc2ccccc2F)c1C1CC1`, the EC50 was 4.99 µM.

Turning to `COc1cccc(OC)c1Sc1c(C2CC2)c(=O)[nH]c(=O)n1COCc1ccccc1`, the EC50 was above 284 µM.

For `O=c1[nH]c(=O)n(COCc2ccccc2)c(Sc2cc(F)cc(F)c2)c1C1CC1`, the EC50 was 3.01 µM.

For `O=c1[nH]c(=O)n(COCc2ccccc2)c(Sc2ccccc2)c1C1CC1`, the EC50 is above 30.7 µM.

For `O=c1[nH]c(=O)n(COCc2ccccc2)c(Sc2ccc(F)cc2F)c1C1CC1`, the EC50 was above 33.5 µM.

Consider `O=c1[nH]c(=O)n(COCc2ccccc2)c(Sc2cccc(F)c2F)c1C1CC1`, for which the EC50 is above 3.84 µM.

Tested on in another data set: not listed separately
Kind of data set: Cytotoxicity against human MT4 cells assessed as reduction in cell viability. The format is toxicity, cell-based.
Settings: not given
On to `Cc1cccc(Sc2c(C3CC3)c(=O)[nH]c(=O)n2COCc2ccccc2)c1`, for which the CC50 was determined as 32.5 µM.

Take `COc1ccc(OC)c(Sc2c(C3CC3)c(=O)[nH]c(=O)n2COCc2ccccc2)c1`: the CC50 was 33.4 µM.

As for `O=c1[nH]c(=O)n(COCc2ccccc2)c(Sc2ccc(F)cc2)c1C1CC1`, the CC50 was 38.8 µM.

For the compound `COc1ccc(Sc2c(C3CC3)c(=O)[nH]c(=O)n2COCc2ccccc2)cc1`, the CC50 amounted to 44.6 µM.

Consider `O=c1[nH]c(=O)n(COCc2ccccc2)c(Sc2ccccc2F)c1C1CC1`, for which the CC50 was 34.7 µM.

On to `COc1cccc(OC)c1Sc1c(C2CC2)c(=O)[nH]c(=O)n1COCc1ccccc1`, for which the CC50 is above 284 µM.

`O=c1[nH]c(=O)n(COCc2ccccc2)c(Sc2cc(F)cc(F)c2)c1C1CC1`: the CC50 was 30 µM.

With `O=c1[nH]c(=O)n(COCc2ccccc2)c(Sc2ccccc2)c1C1CC1`, the cytotoxic concentration (CC50) worked out at 49.9 µM.

`O=c1[nH]c(=O)n(COCc2ccccc2)c(Sc2ccc(F)cc2F)c1C1CC1`: the CC50 worked out at 33.5 µM.

Take `O=c1[nH]c(=O)n(COCc2ccccc2)c(Sc2cccc(F)c2F)c1C1CC1`: the CC50 came out at 31.4 µM.

Another data set concerns Human immunodeficiency virus 1. Briefly: Antiviral activity against HIV1 harboring Y181C mutant infected in human MT4 cells assessed as protection against virus-induced cytopathicity. The format is functional, organism-based. The conditions noted are these: Human immunodeficiency virus 1, MT4.
Consider `Cc1cccc(Sc2c(C3CC3)c(=O)[nH]c(=O)n2COCc2ccccc2)c1`, for which the EC50 amounted to 2.56 µM.

As for `COc1ccc(OC)c(Sc2c(C3CC3)c(=O)[nH]c(=O)n2COCc2ccccc2)c1`, the EC50 worked out at 5.68 µM.

Regarding `O=c1[nH]c(=O)n(COCc2ccccc2)c(Sc2ccc(F)cc2)c1C1CC1`, the EC50 amounted to 6.4 µM.

Regarding `O=c1[nH]c(=O)n(COCc2ccccc2)c(Sc2ccccc2F)c1C1CC1`, the EC50 was found to be 4.47 µM.

Turning to `COc1cccc(OC)c1Sc1c(C2CC2)c(=O)[nH]c(=O)n1COCc1ccccc1`, the EC50 is above 284 µM.

As for `O=c1[nH]c(=O)n(COCc2ccccc2)c(Sc2cc(F)cc(F)c2)c1C1CC1`, the EC50 was 4.27 µM.

In the case of `O=c1[nH]c(=O)n(COCc2ccccc2)c(Sc2ccccc2)c1C1CC1`, the EC50 was found to be 9.83 µM.

In the case of `O=c1[nH]c(=O)n(COCc2ccccc2)c(Sc2ccc(F)cc2F)c1C1CC1`, the EC50 is at least 9.44 µM.

Regarding `O=c1[nH]c(=O)n(COCc2ccccc2)c(Sc2cccc(F)c2F)c1C1CC1`, the EC50 is above 31.4 µM.

Tested on in the next data set: not listed separately
Kind of data set: Selectivity index, ratio of CC50 for cytotoxicity against human MT4 cells to EC50 for antiviral activity against wild type HIV1 IIIB infected in human MT4 cells. As to conditions: read-out: Ratio CC50/EC50. It counts as toxicity, cell-based.
With `Cc1cccc(Sc2c(C3CC3)c(=O)[nH]c(=O)n2COCc2ccccc2)c1`, the selectivity ratio was 1160.

Regarding `COc1ccc(OC)c(Sc2c(C3CC3)c(=O)[nH]c(=O)n2COCc2ccccc2)c1`, the selectivity ratio stood at 150.

As for `O=c1[nH]c(=O)n(COCc2ccccc2)c(Sc2ccc(F)cc2)c1C1CC1`, the selectivity ratio came to 53.

Regarding `COc1ccc(Sc2c(C3CC3)c(=O)[nH]c(=O)n2COCc2ccccc2)cc1`, the selectivity ratio was below 1.

With `O=c1[nH]c(=O)n(COCc2ccccc2)c(Sc2ccccc2F)c1C1CC1`, the selectivity ratio is 813.

Take `COc1cccc(OC)c1Sc1c(C2CC2)c(=O)[nH]c(=O)n1COCc1ccccc1`: the selectivity ratio was above 40.

For `O=c1[nH]c(=O)n(COCc2ccccc2)c(Sc2cc(F)cc(F)c2)c1C1CC1`, the selectivity ratio turned out to be 842.

As for `O=c1[nH]c(=O)n(COCc2ccccc2)c(Sc2ccccc2)c1C1CC1`, the selectivity ratio worked out at 1250.

As to `O=c1[nH]c(=O)n(COCc2ccccc2)c(Sc2ccc(F)cc2F)c1C1CC1`, the selectivity ratio stood at 28.

Turning to `O=c1[nH]c(=O)n(COCc2ccccc2)c(Sc2cccc(F)c2F)c1C1CC1`, the selectivity ratio was 224.
